# US7718781B2, “Hydroxypyridonate and hydroxypyrimidinone chelating agents” (The Regents of the University of California, priority 2001, dated 2010)
# Key:
# [1] = biological target: human serum albumin (HSA) (Homo sapiens, UniProt P02768); assay: Binding to HSA by proton relaxation enhancement (PRE) method
# From the text: Biomolecule affinity measurements are generally measured by art-recognized methods. For example, the non-covalent interaction between HSA and the metal complexes containing hydrophobic groups have been thoroughly investigated using the well-established proton relaxation enhancement (PRE) method (Caravan, P. E. et al., Chem. Rev. 1999, 99, 2293) that allows both the binding parameters (Ka) and the relaxivity enhancement of the (Metal complex)-HSA adduct to be determined. In this method, the water proton relaxation rates of solutions containing the metal complex and increasing concentrations of the serum protein are measured. […]
# The longitudinal relaxation rate (R1) of water protons in a […] solution of Gd-TREN-1-Me-3,2-HOPO-TAM-PEG-5000 was measured with increasing concentrations of HSA (FIG. 19) at 20 MHz and 25° C. […]
# An objective of synthesizing the Bn and MOB chelates was to investigate their interaction with HSA. The non-covalent interaction between HSA and the Gd complexes was investigated using the well-established proton relaxation enhancement (PRE) method that allows both the binding parameters (KA) and the relaxivity enhancement of the (Gd^3+ complex)-HSA adduct to be determined. In this method, the water proton longitudinal relaxation rates (R1) of solutions containing the Gd complex and increasing concentrations of the serum protein are measured.
# [2] = Water proton relaxivity (longitudinal relaxation rate, 20 MHz); format: physicochemical
# Procedure: The efficacy of a paramagnetic complex as a possible MRI contrast agent depends on its ability to catalyze the nuclear magnetic relaxation rate of solvent protons (Lauffer, R. B., Chem. Rev., 87, 901 (1987); Tweedle, M. F.; Kumar, K. In Magnetic Resonance Imaging (MRI) Contrast Agents; Clarke, M. I., Sadler, P. J., Eds.; Springer: Berlin, Germany, Vol. 2, p. 1 (1999); Koenig et al., Prog. NMR Spectrosc., 22:487 (1990)). This property, which is measured in terms in relaxivity, r1p, is defined as the enhancement of the water proton longitudinal relaxation rate induced by a 1 mML^−1 solution of the paramagnetic compound at a given temperature and magnetic field strength (Aime et al., Chem. Soc. Rev., 27:19 (1998)).
# In an exemplary assay, the longitudinal water proton relaxation rate at 20 MHz are measured (typically with a NMR spectrometer operating at 0.5 T) with a reproducibility of the T1 data to ±0.5%. Equipment for the control of temperature (with an accuracy of ±0.1° C.) during these measurements are employed.
# Water proton relaxation measurements were carried out at 20 MHz with a Stelar Spinmaster Spectrometer (Mede, Pv, Italy) on 0.5-2 mM solutions of the Gd(III) complex. Spin-lattice relaxation times T1 were measured by the standard inversion recovery method with typical 90° pulse width of […], 16 experiments of 4 scans. The reproducibility of the data is ±1%. The temperature was controlled by a Stelar VTC-91 air-flow heater equipped with copper-constantan thermocouple (uncertainty ±0.1° C). The 1/T1 nuclear magnetic relaxation dispersion (NMRD) profiles of water protons were measured from 0.00024 to 1.2 T (corresponding to the range 0.01-50 MHz of proton Larmor frequencies) at 15, 25 and 39° C. using 1.5 mM solutions of the complex on the field-cycling Koenig-Brown relaxometer of the University of Torino (Italy). The temperature was controlled by circulating freon from an external bath and measured by a thermometer inserted into the freon close to the sample. The reproducibilities of the measured T1 values were estimated to be ±2%. […]
# [3] = Variable temperature 17O NMR of water transverse relaxation rate (water exchange, q); format: physicochemical
# Procedure: The mean residence water lifetime, τm, is generally determined by measuring the transverse ^17O NMR relaxation rate (R2p) at various temperatures. The variable-temperature ^17O NMR measurement is performed using spectrometers which operate at various magnetic field strengths (2.1 and 9.4 T are typically used) equipped with a 5 mm probe. A D2O external lock and solutions containing 2.6% of the ^17O isotope are used. The observed transverse relaxation rates are calculated from the signal width at half-height. […]
# A variable temperature ^17O NMR study of the transverse relaxation rate of H2^17O (R2p) of Gd-TREN-1-Me-3,2-HOPO-TAM, Gd-TREN-1-Me-3,2-HOPO-TAM-PEG-2000 and Gd-TREN-1-Me-3,2-HOPO-TAM-PEG-5000 at 2.1 T was carried out. Analysis of the profiles also allows the number of coordinated water molecules, q to be evaluated. […]
# The value of τm, was independently obtained by a variable temperature (VT) ^17O NMR measurement of the water nuclear transverse relaxation rate (R2). The data were measured at 2.1 T (90 MHz for the proton and 12 MHz for 170) and pH≈7. The curve was analyzed in terms of the well established equations of Swift-Connick, rearranged in a form suitable for Gd. […]
# Variable-temperature ^17O NMR measurements were recorded on a JEOL EX-400 (9.4 T) spectrometer, equipped with a 5 mm probe, by using D20 for external lock of the magnetic field. […]
# Chain of human serum albumin (HSA) (P02768 25-609): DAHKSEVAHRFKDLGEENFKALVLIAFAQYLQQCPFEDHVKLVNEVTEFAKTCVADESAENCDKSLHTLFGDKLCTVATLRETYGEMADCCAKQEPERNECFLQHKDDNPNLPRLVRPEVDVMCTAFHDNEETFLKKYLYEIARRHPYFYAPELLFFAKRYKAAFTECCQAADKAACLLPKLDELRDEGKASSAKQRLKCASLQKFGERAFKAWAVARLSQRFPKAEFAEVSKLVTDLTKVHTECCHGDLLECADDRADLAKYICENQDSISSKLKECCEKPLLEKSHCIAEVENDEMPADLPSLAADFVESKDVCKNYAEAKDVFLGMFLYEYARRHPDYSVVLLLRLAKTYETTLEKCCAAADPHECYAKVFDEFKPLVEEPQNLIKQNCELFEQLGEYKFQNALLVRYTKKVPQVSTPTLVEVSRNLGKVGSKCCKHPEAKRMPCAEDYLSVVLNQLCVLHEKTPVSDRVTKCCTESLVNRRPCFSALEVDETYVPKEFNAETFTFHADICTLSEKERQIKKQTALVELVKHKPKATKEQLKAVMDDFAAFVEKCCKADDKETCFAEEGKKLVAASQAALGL
structure (smiles),measurement,setting,value
O=C([O-])CN(CCN(CC(=O)[O-])CC(=O)O)CCN(CC(=O)[O-])CC(=O)O.[Gd+3] [Gd-DTPA],KA (HSA)/M^−1,[1]; HSA,<100 M⁻¹
same,r1p^b/mM^−1s^−1 (HSA),[1]; relaxivity of HSA-bound complex,4.3 mM⁻¹ s⁻¹
same,r1p/mM^−1s^−1 (20 MHz),[2],4.3 mM⁻¹ s⁻¹
same,τM/ns,[3],303 ns
